{"source": "patent US12263172B2", "about": "“Toll-like receptor agonists for use in the treatment of hepatitis b” (priority 2019, dated 2025)", "key": {"HBV": {"system": "HBV", "test": "anti-HBV activity in vivo in AAV/HBV mice", "details": "20 mg/kg"}, "[1]": {"test": "pharmacokinetics and metabolism in animals", "format": "in vivo, rats and monkeys", "text": "(§1) Exposure increased more than dose-proportionally at low doses. Variability in exposure was high. • In vitro plasma protein binding was between 79.6% and 94.2% in animals and humans. Volume of distribution after intravenous dosing was high. […] Main metabolic pathways were oxygenation, hydrogenation, dehydrogenation, dealkylation, acetylation, glucuronidation, and/or glutathione conjugation. • In rats, >80% of drug-related material was found in feces, 11% to 20% in bile, and <4% in urine. […] There were no effects on embryofetal development up to 1 mg/kg/dose in rats and 30 mg/kg/dose in rabbits."}, "[2]": {"test": "14- and 28-day toxicity study in monkeys", "format": "in vivo", "details": "3, 15, and 100 mg/kg biw", "text": "as §1"}, "[3]": {"test": "respiratory and central nervous system safety pharmacology in rats", "details": "rat, in vivo", "text": "as §1"}, "[4]": {"test": "Phase 1 multiple dose (Part 2): safety and tolerability in healthy adults", "format": "in vivo, human", "details": "1.25 mg qw fasted", "experimental": "All volunteers were followed up for 4 weeks and safety and tolerability were continuously assessed throughout the study. All adverse events (AEs) were recorded from the time of consent to the completion visit and were graded using the DAIDS toxicity grading scale. Volunteers also underwent physical examinations, electrocardiograms, vital sign checks and clinical laboratory parameters (chemistry, haematology, urinalysis)."}, "[5]": {"test": "6-month toxicity study in Cynomolgus monkeys", "details": "cynomolgus monkey, in vivo", "text": "as §1"}, "[6]": {"target": "T1, organic ion transporter 2 (OCT2) (Homo sapiens, UniProt O15244)", "T1 sequence (O15244 1-555)": "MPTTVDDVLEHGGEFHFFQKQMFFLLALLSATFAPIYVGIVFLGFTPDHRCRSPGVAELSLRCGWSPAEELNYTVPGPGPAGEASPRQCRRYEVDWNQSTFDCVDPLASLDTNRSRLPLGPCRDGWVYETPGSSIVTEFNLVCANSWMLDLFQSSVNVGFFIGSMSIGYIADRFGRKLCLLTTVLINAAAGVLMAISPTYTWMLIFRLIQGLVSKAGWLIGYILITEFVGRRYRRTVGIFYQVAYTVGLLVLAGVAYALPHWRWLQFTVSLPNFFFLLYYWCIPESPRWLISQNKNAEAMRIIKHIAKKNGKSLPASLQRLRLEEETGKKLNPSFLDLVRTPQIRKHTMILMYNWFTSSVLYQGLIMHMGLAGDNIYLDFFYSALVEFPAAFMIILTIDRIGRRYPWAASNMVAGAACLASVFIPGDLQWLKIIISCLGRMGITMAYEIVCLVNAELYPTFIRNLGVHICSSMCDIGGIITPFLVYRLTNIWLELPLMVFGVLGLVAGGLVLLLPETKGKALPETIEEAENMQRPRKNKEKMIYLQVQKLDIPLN", "test": "OCT2 inhibition in vitro", "format": "in vitro ADME", "text": "as §1"}}}
{"smiles": "CCCCOc1nc(N)c2[nH]cc(Cc3ccc(CN4CCCC4)cc3)c2n1", "note": "[Compound 4]", "values": [{"measurement": "HBsAg seroconversion", "setting": "HBV", "result": "in all animals"}, {"measurement": "HBsAg serum levels", "setting": "HBV", "result": "undetectable"}, {"measurement": "time post-treatment reductions in HBsAg levels were sustained", "setting": "HBV", "result": "up to 3 weeks"}, {"measurement": "blood clearance", "setting": "[1]; in vivo", "result": "moderate"}, {"measurement": "volume of distribution", "setting": "[1]; intravenous dosing", "result": "high"}, {"measurement": "tissue distribution", "setting": "[1]; oral dosing in rats and monkeys", "result": "highest levels in liver, small intestines and brain"}, {"measurement": "half-life", "setting": "[1]; rat, monkey, in vivo", "result": "5 to 14", "unit": "h"}, {"measurement": "Tmax", "setting": "[1]; rat, monkey, in vivo, oral dosing", "result": "0.8 to 2", "unit": "h"}, {"measurement": "brain inflammation", "setting": "[2]", "result": "Brain inflammation occurred"}, {"measurement": "effects on respiratory or central nervous system parameters", "setting": "[3]", "result": "no relevant effects"}, {"measurement": "ECG actual value: Heart rate (bpm) Low", "setting": "[4]", "result": "0 n (%)"}, {"measurement": "ECG actual value: QTcB (ms) ]450; 480]", "setting": "[4]", "result": "1 (16.7%) n (%)"}, {"measurement": "ECG change from reference: QTcB (ms) >60", "setting": "[4]", "result": "1 (16.7%) n (%)"}, {"measurement": "ECG change from reference: QTcB (ms) [30; 60]", "setting": "[4]", "result": "1 (16.7%) n (%)"}, {"measurement": "ECG change from reference: QTcF (ms) [30; 60]", "setting": "[4]", "result": "1 (16.7%) n (%)"}, {"measurement": "lab toxicity: Amylase (U/L), upwards, Grade 1", "setting": "[4]", "result": "2 (33.3%) n (%)"}, {"measurement": "lab toxicity: Amylase (U/L), upwards, Grade 2", "setting": "[4]", "result": "0 n (%)"}, {"measurement": "lab toxicity: Aspartate aminotransferase (U/L), upwards, Grade 1", "setting": "[4]", "result": "1 (16.7%) n (%)"}, {"measurement": "lab toxicity: Aspartate aminotransferase (U/L), upwards, Grade 2", "setting": "[4]", "result": "1 (16.7%) n (%)"}, {"measurement": "lab toxicity: Cholesterol (mmol/L), upwards, Grade 1", "setting": "[4]", "result": "1 (16.7%) n (%)"}, {"measurement": "lab toxicity: Creatine kinase (U/L), upwards, Grade 3", "setting": "[4]", "result": "1 (16.7%) n (%)"}, {"measurement": "lab toxicity: Creatine kinase (U/L), upwards, Grade 4", "setting": "[4]", "result": "1 (16.7%) n (%)"}, {"measurement": "lab toxicity: GFR from creatinine adjusted for BSA (mL/s/1.73m^2), downwards, Grade 2", "setting": "[4]", "result": "1 (16.7%) n (%)"}, {"measurement": "lab toxicity: Glucose (mmol/L), upwards, Grade 1", "setting": "[4]", "result": "4 (66.7%) n (%)"}, {"measurement": "lab toxicity: Glucose (mmol/L), upwards, Grade 2", "setting": "[4]", "result": "2 (33.3%) n (%)"}, {"measurement": "lab toxicity: Potassium (mmol/L), upwards, Grade 1", "setting": "[4]", "result": "1 (16.7%) n (%)"}, {"measurement": "lab toxicity: Sodium (mmol/L), upwards, Grade 1", "setting": "[4]", "result": "0 n (%)"}, {"measurement": "lab toxicity: Triglycerides (mmol/L), upwards, Grade 1", "setting": "[4]", "result": "1 (16.7%) n (%)"}, {"measurement": "lab toxicity: Triglycerides (mmol/L), upwards, Grade 2", "setting": "[4]", "result": "2 (33.3%) n (%)"}, {"measurement": "subjects with at least one AE", "setting": "[4]", "result": "6 (100%) n (%)"}, {"measurement": "subjects with at least one AE for which any study drug or study was permanently stopped", "setting": "[4]", "result": "1 (16.7%) n (%)"}, {"measurement": "subjects with at least one AE for which any study drug or study was temporarily stopped", "setting": "[4]", "result": "0 n (%)"}, {"measurement": "subjects with at least one AE possibly related to any study drug", "setting": "[4]", "result": "2 (33.3%) n (%)"}, {"measurement": "subjects with at least one AE possibly, probably or very likely related to any study drug", "setting": "[4]", "result": "3 (50.0%) n (%)"}, {"measurement": "subjects with at least one AE probably related to any study drug", "setting": "[4]", "result": "1 (16.7%) n (%)"}, {"measurement": "subjects with at least one AE very likely related to any study drug", "setting": "[4]", "result": "1 (16.7%) n (%)"}, {"measurement": "subjects with at least one SAE", "setting": "[4]", "result": "0 n (%)"}, {"measurement": "subjects with at least one fatal AE", "setting": "[4]", "result": "0 n (%)"}, {"measurement": "subjects with at least one grade 1 AE", "setting": "[4]", "result": "5 (83.3%) n (%)"}, {"measurement": "subjects with at least one grade 2 AE", "setting": "[4]", "result": "1 (16.7%) n (%)"}, {"measurement": "subjects with at least one grade 3 or 4 AE", "setting": "[4]", "result": "0 n (%)"}, {"measurement": "subjects with high values for the monocytes/leukocytes ratio (non-graded)", "setting": "[4]", "result": "4 (66.7%) n (%)"}, {"measurement": "subjects with low erythrocyte count (non-graded)", "setting": "[4]", "result": "3 (50.0%) n (%)"}, {"measurement": "treatment-related AE: Abdominal pain", "setting": "[4]", "result": "0 n (%)"}, {"measurement": "treatment-related AE: Any AE", "setting": "[4]", "result": "3 (50.0%) n (%)"}, {"measurement": "treatment-related AE: Arthralgia", "setting": "[4]", "result": "1 (16.7%) n (%)"}, {"measurement": "treatment-related AE: Dry skin", "setting": "[4]", "result": "1 (16.7%) n (%)"}, {"measurement": "treatment-related AE: Dyspnoea", "setting": "[4]", "result": "1 (16.7%) n (%)"}, {"measurement": "treatment-related AE: Eye disorders", "setting": "[4]", "result": "1 (16.7%) n (%)"}, {"measurement": "treatment-related AE: Gastrointestinal disorders", "setting": "[4]", "result": "1 (16.7%) n (%)"}, {"measurement": "treatment-related AE: Headache", "setting": "[4]", "result": "1 (16.7%) n (%)"}, {"measurement": "treatment-related AE: Nausea", "setting": "[4]", "result": "1 (16.7%) n (%)"}, {"measurement": "treatment-related AE: Nervous system disorders", "setting": "[4]", "result": "1 (16.7%) n (%)"}, {"measurement": "treatment-related AE: Respiratory, thoracic and mediastinal disorders", "setting": "[4]", "result": "1 (16.7%) n (%)"}, {"measurement": "treatment-related AE: Retching", "setting": "[4]", "result": "1 (16.7%) n (%)"}, {"measurement": "treatment-related AE: Retinal exudates", "setting": "[4]", "result": "1 (16.7%) n (%)"}, {"measurement": "treatment-related AE: Skin and subcutaneous tissue disorders", "setting": "[4]", "result": "1 (16.7%) n (%)"}, {"measurement": "vital signs: Respiratory rate (brpm) Grade 1", "setting": "[4]", "result": "4 (66.7%) n (%)"}, {"measurement": "vital signs: SaO2 (%) 95% to <98%", "setting": "[4]", "result": "5 (83.3%) n (%)"}, {"measurement": "vital signs: Standing DBP (mmHg) Grade 1", "setting": "[4]", "result": "2 (33.3%) n (%)"}, {"measurement": "vital signs: Standing DBP (mmHg) Grade 2", "setting": "[4]", "result": "2 (33.3%) n (%)"}, {"measurement": "vital signs: Standing DBP (mmHg) Grade 3", "setting": "[4]", "result": "2 (33.3%) n (%)"}, {"measurement": "vital signs: Standing SBP (mmHg) Grade 1", "setting": "[4]", "result": "3 (50.0%) n (%)"}, {"measurement": "vital signs: Standing SBP (mmHg) Grade 2", "setting": "[4]", "result": "0 n (%)"}, {"measurement": "vital signs: Standing SBP (mmHg) Low", "setting": "[4]", "result": "2 (33.3%) n (%)"}, {"measurement": "vital signs: Standing pulse (bpm) High", "setting": "[4]", "result": "3 (50.0%) n (%)"}, {"measurement": "vital signs: Supine DBP (mmHg) Grade 1", "setting": "[4]", "result": "2 (33.3%) n (%)"}, {"measurement": "vital signs: Supine SBP (mmHg) Grade 1", "setting": "[4]", "result": "1 (16.7%) n (%)"}, {"measurement": "vital signs: Supine SBP (mmHg) Low", "setting": "[4]", "result": "0 n (%)"}, {"measurement": "vital signs: Supine pulse (bpm) Low", "setting": "[4]", "result": "1 (16.7%) n (%)"}, {"measurement": "lab toxicity: LDL cholesterol (mmol/L, direct), upwards, Grade 1", "setting": "[4]; n = 1 with data", "result": "1 (100.0%) n (%)"}, {"measurement": "lab toxicity: Pancreatic amylase (U/L), upwards, Grade 1", "setting": "[4]; n = 2 with data", "result": "1 (50.0%) n (%)"}, {"measurement": "NOAEL at 6 months", "setting": "[5]; q2w", "result": 4.5, "unit": "mg/kg"}, {"measurement": "NOAEL at 6 months", "setting": "[5]; qw", "result": 3, "unit": "mg/kg"}, {"measurement": "AUC(0-t)", "setting": "[5]; 3.0 mg/kg qw or 4.5 mg/kg q2w, read-out: AUC24h at NOAEL", "result": "13.2 to 44.8", "unit": "ng·h/mL"}, {"measurement": "Cmax", "setting": "[5]; 3.0 mg/kg qw or 4.5 mg/kg q2w, read-out: Cmax at NOAEL", "result": "2.56 to 16.4", "unit": "ng/mL"}, {"measurement": "IC50", "setting": "[6]", "result": 4.97, "unit": "µM"}]}
